Patent US9017681B2, “Adenylyl cyclases as novel targets for antibactrial interventions” (Cornell Research Foundation, Inc., priority 2007, dated 2015)
“Also recorded” adds a separate entry of the source. Where two headings read alike, the source gives them in different places.

Legend:
[1] = tested on: P. aeruginosa CyaB (a Class III adenylyl cyclase); experiment: Pseudomonas adenylyl cyclase assay with purified His-CyaB; format: biochemical, Pseudomonas aeruginosa; conditions: increasing concentrations of compound, FIG. 1 / FIG. 2
Description: (§1) FIG. 1. […] The CyaB was heterologously expressed in E. coli as a poly-histidine tagged fusion protein and purified using a nickel column. Adenylyl cyclase activity was determined by measuring cyclic AMP levels using the Correlate-EIA Direct Cyclic AMP assay kit from Assay Designs as per manufacturers instructions.
as §1, with “2.” for “1.”
P. aeruginosa CyaB (a Class III adenylyl cyclase) was heterologously expressed in E. coli as a HIS-tagged, fusion protein. Expression of the fusion protein was induced by Isopropyl β-D-1-thiogalactopyranoside (IPTG) t at 21° C. (empirically found to be best temperature for expression). The His-CyaB fusion protein was purified using a nickel affinity column according to standard protocols in the absence of any reducing agent. Eluted protein was dialyzed into storage buffer consisting of: 50 mM Tris (pH 8.5), 10 mM NaCl, 2 mM MgCl2, and 25% glycerol.
The purified CyaB was assayed for cyclase activity as follows. […]
(§2) Cyclic AMP levels were measured in each sample using the Correlate-EIA Direct Cyclic AMP assay kit from Assay Designs as per manufacturers instructions.

[2] = biological target: T1, human sAC (Homo sapiens, UniProt Q96PN6); experiment: in vitro adenylyl cyclase assay with purified human sAC protein (cAMP by Correlate-EIA); format: biochemical; conditions: for inhibition at 100 µM: 100 μM of compound
T1 construct: made in house
T1 sequence (Q96PN6 1-469 limits assumed): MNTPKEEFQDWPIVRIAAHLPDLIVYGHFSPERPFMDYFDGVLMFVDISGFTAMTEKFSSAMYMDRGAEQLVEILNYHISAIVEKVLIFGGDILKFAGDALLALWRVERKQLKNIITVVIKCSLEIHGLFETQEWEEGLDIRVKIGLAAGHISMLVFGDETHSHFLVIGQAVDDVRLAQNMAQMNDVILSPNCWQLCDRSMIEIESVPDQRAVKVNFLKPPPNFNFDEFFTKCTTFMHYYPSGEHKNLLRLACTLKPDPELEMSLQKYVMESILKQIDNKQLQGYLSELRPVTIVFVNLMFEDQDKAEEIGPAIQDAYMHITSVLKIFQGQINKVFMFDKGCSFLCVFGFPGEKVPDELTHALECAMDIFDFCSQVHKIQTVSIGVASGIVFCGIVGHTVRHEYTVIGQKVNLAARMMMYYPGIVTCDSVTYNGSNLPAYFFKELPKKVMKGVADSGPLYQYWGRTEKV
Description: Purified human sAC protein was used in an in vitro adenylyl cyclase assay. Purification of the protein is described in detail in Litvin et al. 2003. (J. Biol. Chem. 278:15922-15926). This paper also describes the general conditions for a sAC cyclase assay. The specific conditions for the in vitro assay are as follows.
For basal sAC activity, an assay master mixture with sufficient volume for all reactions was prepared containing:
100 U/ml creatine phosphokinase (CPK)
An aliquot of the master mixture was added to the purified human sAC. The assay mixture also included the indicated concentration of KH compound, or an equivalent volume of vehicle (i.e., DMSO) as control. The reaction was started by adding 5 mM ATP (total assay volume=100 μL). The reaction mixture was incubated at 30° C. for 30 minutes and then stopped by adding 100 μl […]. Stimulated assay conditions involve adding 40 mM bicarbonate and 5 mM CaCl2 to the above master mixture.
as §2

Question: How did the “effect on CyaB adenylyl cyclase activity” value [1] turn out when `O=C(CSc1nc2ccccc2[nH]1)N/N=C/c1ccc(O)c(O)c1` [KH7.148] was run?
Answer: inhibitor; also recorded: decrease in the activity

Question: And the inhibition at 100 µM ([2]; BASAL human sAC in vitro activity, read-out: % Inhibition (100 μM), hsACt-Basal)?
Answer: 70%

Question: What about the inhibition at 100 µM ([2]; stimulated human sAC in vitro activity, read-out: % Inhibition (100 μM), hsACt-Stim.) of the same compound?
Answer: 80%

Question: What about the IC50 ([2]; BASAL activity of human sAC in vitro (just Mg-ATP, no calcium or bicarbonate), read-out: hsACt-Basal approximate IC50 (or the dose range where the IC50 should lie)) of the same compound?
Answer: 10 to 100 µM

Question: What about the IC50 ([2]; stimulated activity of human sAC in vitro (calcium and bicarbonate stimulated), read-out: hsACt-Stim. approximate IC50 (or the dose range where the IC50 should lie)) of the same compound?
Answer: 1 to 10 µM
